According to patent publication US9085605B2, “Chemical synthesis and anti-tumor and anti-metastatic effects of dual functional conjugate” (Shenzhen Salubris Pharmaceuticals Co., Ltd., priority 2010, dated 2015):

Columns and labels:
[1] = system: human breast cancer line MDA-MB-231; assay: Tumor growth inhibition in nude mice xenograft model, MDA-MB-231
Protocol: • 1. […] Drug administration dose were set as: 10 mg/kg, 15 mg/kg, and 20 mk/kg, drug administration volume was 0.2 mL/20 g. • 2. […] MDA [Peptide (P) 0.54 mg/mL (0.001M), Example 10], a colorless and clear liquid, was prepared by the commission, can be directly used after the repackaging in a sterile condition, stored at 4° C. […] Certificate NO. […] SYSK (BeiJing) 2004-0001. Experiment Methods:
The mice were divided into groups and administrated drug after 11 days.
The mice were divided into eight groups, each group had 6-8 mice. The groups contained Negative control. […] After grouping, all mice were administrated with drug by intraperitoneal injection once a day depends on their body weight.
Other groups were administered with drugs for 24 times successively. The experiment was completed 24 h after the last administration.
The mice were sacrificed, and tumors were isolated and their weight was measured, and the inhibition rate of tumor growth by drugs were calculated. […] Calculation methods and formula were omitted.

[2] = system: 60 human tumor cell lines; assay: NCI screening of antitumor activity in vitro in 60 human tumor cell lines; format: cell-based
Excerpt: The experimental results refer to FIGS. 1-12.

[3] = system: 10 human tumor cell lines; assay: Antitumor activity screening in 10 human tumor cell lines; format: cell-based
Excerpt: In the invention, the compounds, MTC-301, MTC-302, MTC-303, MTC-304, MTC-305, MTC-306, MTC-307, MDC-308, MDC-403, MDC-404, MDC-405. MDC-406, MDC-407 and MDC-408 were screened their antitumor activity in 10 human tumor cell lines. […] The experimental results refer to FIGS. 13-16.

Row | SMILES | 50% growth inhibition (GI50) activity [3] | other results
1 | CC(NC(=O)/C=C/c1ccc(Cl)cc1)C(=O)N[C@@H](CCC(=O)NC(CCCCN)C(N)=O)C(N)=O (some centres unmarked) [MDA] | – | Tumor growth rate (in words) ([1]; MDA 0.54 mg/mL × 24): slower than the tumor growth rate of the negative control group; RTV ([1]; MDA 0.54 mg/mL × 24, i.p.): 15.06 ± 5.292; T/C ([1]; MDA 0.54 mg/mL × 24, i.p.): 83.5%; TGI ([1]; MDA 0.54 mg/mL × 24, i.p.): 30.3%; Tumor volume Beginning ([1]; MDA 0.54 mg/mL × 24, i.p.): 141 ± 61.1 mm^3; Tumor volume End ([1]; MDA 0.54 mg/mL × 24, i.p.): 1898 ± 775.4 mm^3; Tumor weight ([1]; MDA 0.54 mg/mL × 24, i.p.): 1.98 ± 0.744 g
2 | CC(=O)O[C@@]12CO[C@@H]1C[C@H](O)[C@@]1(C)C(=O)[C@H](O)C3=C(C)[C@@H](OC(=O)[C@H](OC(=O)CCC(=O)NCCCCC(NC(=O)CC[C@H](NC(=O)C(C)NC(=O)/C=C/c4ccc(Cl)cc4)C(N)=O)C(N)=O)[C@@H](NC(=O)OC(C)(C)C)c4ccccc4)C[C@@](O)([C@@H](OC(=O)c4ccccc4)[C@H]21)C3(C)C (some centres unmarked) [MDC-400] | – | 50% growth inhibition (GI50) activity [2]: in the same magnitude range as paclitaxel
3 | CC(=O)O[C@@]12CO[C@@H]1C[C@H](O)[C@@]1(C)C(=O)[C@H](O)C3=C(C)[C@@H](OC(=O)[C@H](OC(=O)CCC(=O)NCCCCC(NC(=O)CC[C@H](NC(=O)C(C)NC(=O)/C=C/c4ccc(F)cc4F)C(N)=O)C(N)=O)[C@@H](NC(=O)OC(C)(C)C)c4ccccc4)C[C@@](O)([C@@H](OC(=O)c4ccccc4)[C@H]21)C3(C)C (some centres unmarked) [MDC-403] | in the same magnitude range as paclitaxel or docetaxel | –
4 | CC(=O)O[C@@]12CO[C@@H]1C[C@H](O)[C@@]1(C)C(=O)[C@H](O)C3=C(C)[C@@H](OC(=O)[C@H](OC(=O)CCC(=O)NCCCCC(NC(=O)CC[C@H](NC(=O)C(C)NC(=O)/C=C/c4ccc(Cl)cc4F)C(N)=O)C(N)=O)[C@@H](NC(=O)OC(C)(C)C)c4ccccc4)C[C@@](O)([C@@H](OC(=O)c4ccccc4)[C@H]21)C3(C)C (some centres unmarked) [MDC-404] | in the same magnitude range as paclitaxel or docetaxel | –
5 | CC(=O)O[C@@]12CO[C@@H]1C[C@H](O)[C@@]1(C)C(=O)[C@H](O)C3=C(C)[C@@H](OC(=O)[C@H](OC(=O)CCC(=O)NCCCCC(NC(=O)CC[C@H](NC(=O)C(C)NC(=O)/C=C/c4ccc(F)cc4Cl)C(N)=O)C(N)=O)[C@@H](NC(=O)OC(C)(C)C)c4ccccc4)C[C@@](O)([C@@H](OC(=O)c4ccccc4)[C@H]21)C3(C)C (some centres unmarked) [MDC-405] | in the same magnitude range as paclitaxel or docetaxel | –
6 | CC(=O)O[C@@]12CO[C@@H]1C[C@H](O)[C@@]1(C)C(=O)[C@H](O)C3=C(C)[C@@H](OC(=O)[C@H](OC(=O)CCC(=O)NCCCCC(NC(=O)CC[C@H](NC(=O)C(C)NC(=O)/C=C/c4ccc(F)cc4)C(N)=O)C(N)=O)[C@@H](NC(=O)OC(C)(C)C)c4ccccc4)C[C@@](O)([C@@H](OC(=O)c4ccccc4)[C@H]21)C3(C)C (some centres unmarked) [MDC-406] | in the same magnitude range as paclitaxel or docetaxel | –
7 | CC(=O)O[C@@]12CO[C@@H]1C[C@H](O)[C@@]1(C)C(=O)[C@H](O)C3=C(C)[C@@H](OC(=O)[C@H](OC(=O)CCC(=O)NCCCCC(NC(=O)CC[C@H](NC(=O)C(C)NC(=O)/C=C/c4cccc(F)c4)C(N)=O)C(N)=O)[C@@H](NC(=O)OC(C)(C)C)c4ccccc4)C[C@@](O)([C@@H](OC(=O)c4ccccc4)[C@H]21)C3(C)C (some centres unmarked) [MDC-407] | in the same magnitude range as paclitaxel or docetaxel | –
8 | CC(=O)O[C@@]12CO[C@@H]1C[C@H](O)[C@@]1(C)C(=O)[C@H](O)C3=C(C)[C@@H](OC(=O)[C@H](OC(=O)CCC(=O)NCCCCC(NC(=O)CC[C@H](NC(=O)C(C)NC(=O)/C=C/c4ccc(F)c(F)c4)C(N)=O)C(N)=O)[C@@H](NC(=O)OC(C)(C)C)c4ccccc4)C[C@@](O)([C@@H](OC(=O)c4ccccc4)[C@H]21)C3(C)C (some centres unmarked) [MDC-408] | in the same magnitude range as paclitaxel or docetaxel | –
9 | CC(=O)O[C@H]1C(=O)[C@@]2(C)[C@H]([C@H](OC(=O)c3ccccc3)[C@]3(O)C[C@H](OC(=O)[C@H](OC(=O)CCC(=O)NCCCCC(NC(=O)CC[C@H](NC(=O)C(C)NC(=O)c4ccc5ccccc5n4)C(N)=O)C(N)=O)[C@@H](NC(=O)c4ccccc4)c4ccccc4)C(C)=C1C3(C)C)[C@]1(OC(C)=O)CO[C@@H]1C[C@@H]2O (some centres unmarked) [MTC-213] | – | 50% growth inhibition (GI50) activity [2]: in the same magnitude range as paclitaxel
10 | CC(=O)O[C@H]1C(=O)[C@@]2(C)[C@H]([C@H](OC(=O)c3ccccc3)[C@]3(O)C[C@H](OC(=O)[C@H](OC(=O)CCC(=O)NCCCCC(NC(=O)CC[C@H](NC(=O)C(C)NC(=O)/C=C/c4cccs4)C(N)=O)C(N)=O)[C@@H](NC(=O)c4ccccc4)c4ccccc4)C(C)=C1C3(C)C)[C@]1(OC(C)=O)CO[C@@H]1C[C@@H]2O (some centres unmarked) [MTC-219] | – | 50% growth inhibition (GI50) activity [2]: in the same magnitude range as paclitaxel
11 | CC(=O)O[C@H]1C(=O)[C@@]2(C)[C@H]([C@H](OC(=O)c3ccccc3)[C@]3(O)C[C@H](OC(=O)[C@H](OC(=O)CCC(=O)NCCCCC(NC(=O)CC[C@H](NC(=O)C(C)NC(=O)COc4cccc5ccccc45)C(N)=O)C(N)=O)[C@@H](NC(=O)c4ccccc4)c4ccccc4)C(C)=C1C3(C)C)[C@]1(OC(C)=O)CO[C@@H]1C[C@@H]2O (some centres unmarked) [MTC-233] | – | 50% growth inhibition (GI50) activity [2]: in the same magnitude range as paclitaxel
12 | CC(=O)O[C@H]1C(=O)[C@@]2(C)[C@H]([C@H](OC(=O)c3ccccc3)[C@]3(O)C[C@H](OC(=O)[C@H](OC(=O)CCC(=O)NCCCCC(NC(=O)CC[C@H](NC(=O)C(C)NC(=O)/C=C/c4ccc(O)cc4)C(N)=O)C(N)=O)[C@@H](NC(=O)c4ccccc4)c4ccccc4)C(C)=C1C3(C)C)[C@]1(OC(C)=O)CO[C@@H]1C[C@@H]2O (some centres unmarked) [MTC-301] | in the same magnitude range as paclitaxel or docetaxel | –
13 | CC(=O)O[C@H]1C(=O)[C@@]2(C)[C@H]([C@H](OC(=O)c3ccccc3)[C@]3(O)C[C@H](OC(=O)[C@H](OC(=O)CCC(=O)NCCCCC(NC(=O)CC[C@H](NC(=O)C(C)NC(=O)/C=C/c4ccc(C)cc4)C(N)=O)C(N)=O)[C@@H](NC(=O)c4ccccc4)c4ccccc4)C(C)=C1C3(C)C)[C@]1(OC(C)=O)CO[C@@H]1C[C@@H]2O (some centres unmarked) [MTC-302] | in the same magnitude range as paclitaxel or docetaxel | 50% growth inhibition (GI50) activity [2]: in the same magnitude range as paclitaxel
14 | CC(=O)O[C@H]1C(=O)[C@@]2(C)[C@H]([C@H](OC(=O)c3ccccc3)[C@]3(O)C[C@H](OC(=O)[C@H](OC(=O)CCC(=O)NCCCCC(NC(=O)CC[C@H](NC(=O)C(C)NC(=O)/C=C/c4ccc(F)cc4F)C(N)=O)C(N)=O)[C@@H](NC(=O)c4ccccc4)c4ccccc4)C(C)=C1C3(C)C)[C@]1(OC(C)=O)CO[C@@H]1C[C@@H]2O (some centres unmarked) [MTC-303] | in the same magnitude range as paclitaxel or docetaxel | –
15 | CC(=O)O[C@H]1C(=O)[C@@]2(C)[C@H]([C@H](OC(=O)c3ccccc3)[C@]3(O)C[C@H](OC(=O)[C@H](OC(=O)CCC(=O)NCCCCC(NC(=O)CC[C@H](NC(=O)C(C)NC(=O)/C=C/c4ccc(Cl)cc4F)C(N)=O)C(N)=O)[C@@H](NC(=O)c4ccccc4)c4ccccc4)C(C)=C1C3(C)C)[C@]1(OC(C)=O)CO[C@@H]1C[C@@H]2O (some centres unmarked) [MTC-304] | in the same magnitude range as paclitaxel or docetaxel | –
16 | CC(=O)O[C@H]1C(=O)[C@@]2(C)[C@H]([C@H](OC(=O)c3ccccc3)[C@]3(O)C[C@H](OC(=O)[C@H](OC(=O)CCC(=O)NCCCCC(NC(=O)CC[C@H](NC(=O)C(C)NC(=O)/C=C/c4ccc(F)cc4Cl)C(N)=O)C(N)=O)[C@@H](NC(=O)c4ccccc4)c4ccccc4)C(C)=C1C3(C)C)[C@]1(OC(C)=O)CO[C@@H]1C[C@@H]2O (some centres unmarked) [MTC-305] | in the same magnitude range as paclitaxel or docetaxel | –
17 | CC(=O)O[C@H]1C(=O)[C@@]2(C)[C@H]([C@H](OC(=O)c3ccccc3)[C@]3(O)C[C@H](OC(=O)[C@H](OC(=O)CCC(=O)NCCCCC(NC(=O)CC[C@H](NC(=O)C(C)NC(=O)/C=C/c4ccc(F)cc4)C(N)=O)C(N)=O)[C@@H](NC(=O)c4ccccc4)c4ccccc4)C(C)=C1C3(C)C)[C@]1(OC(C)=O)CO[C@@H]1C[C@@H]2O (some centres unmarked) [MTC-306] | in the same magnitude range as paclitaxel or docetaxel | –
18 | CC(=O)O[C@H]1C(=O)[C@@]2(C)[C@H]([C@H](OC(=O)c3ccccc3)[C@]3(O)C[C@H](OC(=O)[C@H](OC(=O)CCC(=O)NCCCCC(NC(=O)CC[C@H](NC(=O)C(C)NC(=O)/C=C/c4cccc(F)c4)C(N)=O)C(N)=O)[C@@H](NC(=O)c4ccccc4)c4ccccc4)C(C)=C1C3(C)C)[C@]1(OC(C)=O)CO[C@@H]1C[C@@H]2O (some centres unmarked) [MTC-307] | in the same magnitude range as paclitaxel or docetaxel | –
19 | CC(=O)O[C@H]1C(=O)[C@@]2(C)[C@H]([C@H](OC(=O)c3ccccc3)[C@]3(O)C[C@H](OC(=O)[C@H](OC(=O)CCC(=O)NCCCCC(NC(=O)CC[C@H](NC(=O)C(C)NC(=O)/C=C/c4ccc(F)c(F)c4)C(N)=O)C(N)=O)[C@@H](NC(=O)c4ccccc4)c4ccccc4)C(C)=C1C3(C)C)[C@]1(OC(C)=O)CO[C@@H]1C[C@@H]2O (some centres unmarked) [MTC-308] | in the same magnitude range as paclitaxel or docetaxel | –
